Source: patent US20250101041A1, “POSITIVE ALLOSTERIC MODULATORS OF THE MUSCARINIC ACETYLCHOLINE RECEPTOR M4” (Vanderbilt University, priority 2022, published 2025)

Target: T1, human mAChR M4 (Homo sapiens, UniProt P08173)
T1 construct: expressed in transfected cells; host or cells: CHO-K1 (American Type Culture Collection), stably expressing hM4 and Gqi5
T1 sequence (P08173 1-479): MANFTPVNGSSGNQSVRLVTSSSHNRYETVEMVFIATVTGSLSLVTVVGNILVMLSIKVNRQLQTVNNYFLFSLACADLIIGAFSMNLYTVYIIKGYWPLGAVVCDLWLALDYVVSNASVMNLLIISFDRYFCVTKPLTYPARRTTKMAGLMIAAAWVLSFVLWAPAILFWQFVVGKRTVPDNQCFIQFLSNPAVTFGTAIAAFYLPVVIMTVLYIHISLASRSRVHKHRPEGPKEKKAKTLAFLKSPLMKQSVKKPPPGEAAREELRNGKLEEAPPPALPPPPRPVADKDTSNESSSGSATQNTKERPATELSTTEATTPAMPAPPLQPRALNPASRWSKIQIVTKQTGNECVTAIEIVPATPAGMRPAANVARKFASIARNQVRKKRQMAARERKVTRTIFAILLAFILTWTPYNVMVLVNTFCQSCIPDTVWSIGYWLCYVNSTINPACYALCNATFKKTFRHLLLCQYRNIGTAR
Experiment: mAChR M4 cell-based functional assay: calcium mobilization (Fluo-4, FDSS), potentiation of EC20 acetylcholine response in hM4-Gqi5 CHO-K1 cells
Settings: human M4; for Emax at 30 µM: CHO-K1, % ACh maximum at 30 μM; for EC50: potentiation of EC20 acetylcholine response, calcium mobilization
In short: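 Readout is the fluorescence-ratio rise at 1 Hz on FDSS, with PAM activity taken as concentration-dependent enhancement of the EC20 acetylcholine response, fitted four-parameter for EC50/Emax. hM4-Gqi5 CHO-K1 cells carried Fluo-4 AM dye; test compounds (11 points, 1:3) preceded EC20 acetylcholine additions at 144 s and 230 s.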

| Compound | Emax at 30 µM | EC50 |
| --- | --- | --- |
| Cc1cc(=O)n2nc(N3CCc4ncc(-c5cccnc5)cc4C3)c(C)cc2n1 [Compound 1-290, 2,8-dimethyl-7-(3-(pyridin-3-yl)-7,8-dihydro-1,6-naphthyridin-6(5H)-yl)-4H-pyrimido[1,2-b]pyridazin-4-one] | 90% | 0.375 µM |
| Cc1cc(=O)n2nc(N3CCc4ncc(-c5cnn(CC(F)(F)F)c5)cc4C3)c(C)cc2n1 [Compound 1-291, 2,8-dimethyl-7-(3-(1-(2,2,2-trifluoroethyl)-1H-pyrazol-4-yl)-7,8-dihydro-1,6-naphthyridin-6(5H)-yl)-4H-pyrimido[1,2-b]pyridazin-4-one] | 82% | 0.356 µM |
| Cc1ccc(-c2cnc3c(c2)CN(c2nn4c(=O)cc(C)nc4cc2C)CC3)c(C)c1 [Compound 1-292, 7-(3-(2,4-dimethylphenyl)-7,8-dihydro-1,6-naphthyridin-6(5H)-yl)-2,8-dimethyl-4H-pyrimido[1,2-b]pyridazin-4-one] | 92% | 0.477 µM |
| Cc1ccc(-c2cnc3c(c2)CN(c2nn4c(=O)cc(C)nc4cc2C)CC3)cc1 [Compound 1-293, 2,8-dimethyl-7-(3-(p-tolyl)-7,8-dihydro-1,6-naphthyridin-6(5H)-yl)-4H-pyrimido[1,2-b]pyridazin-4-one] | 88% | 0.331 µM |
| Cc1cc(=O)n2nc(N3CCc4ncc(-c5cnn(C)c5C)cc4C3)c(C)cc2n1 [Compound 1-294, 7-(3-(1,5-dimethyl-1H-pyrazol-4-yl)-7,8-dihydro-1,6-naphthyridin-6(5H)-yl)-2,8-dimethyl-4H-pyrimido[1,2-b]pyridazin-4-one] | 99% | 0.245 µM |
| COc1ccncc1-c1cnc2c(c1)CN(c1nn3c(=O)cc(C)nc3cc1C)CC2 [Compound 1-295, 7-(3-(4-methoxypyridin-3-yl)-7,8-dihydro-1,6-naphthyridin-6(5H)-yl)-2,8-dimethyl-4H-pyrimido[1,2-b]pyridazin-4-one] | 96% | 0.089 µM |
| Cc1cc2nccn2cc1-c1cnc2c(c1)CN(c1nn3c(=O)ccnc3c(C)c1C)CC2 [Compound 1-296, 8,9-dimethyl-7-(3-(7-methylimidazo[1,2-a]pyridin-6-yl)-7,8-dihydro-1,6-naphthyridin-6(5H)-yl)-4H-pyrimido[1,2-b]pyridazin-4-one] | 62% | 0.563 µM |
| Cc1cc(=O)n2nc(N3CCc4ncc(-c5cccs5)cc4C3)c(C)cc2n1 [Compound 1-297, 2,8-dimethyl-7-(3-(thiophen-2-yl)-7,8-dihydro-1,6-naphthyridin-6(5H)-yl)-4H-pyrimido[1,2-b]pyridazin-4-one] | 87% | 0.076 µM |
| COc1ccsc1-c1cnc2c(c1)CN(c1nn3c(=O)cc(C)nc3cc1C)CC2 [Compound 1-298, 7-(3-(3-methoxythiophen-2-yl)-7,8-dihydro-1,6-naphthyridin-6(5H)-yl)-2,8-dimethyl-4H-pyrimido[1,2-b]pyridazin-4-one] | 85% | 0.083 µM |
| Cc1cc(=O)n2nc(N3CCc4ncc(-c5ccc(CO)s5)cc4C3)c(C)cc2n1 [Compound 1-299, 7-(3-(5-(hydroxymethyl)thiophen-2-yl)-7,8-dihydro-1,6-naphthyridin-6(5H)-yl)-2,8-dimethyl-4H-pyrimido[1,2-b]pyridazin-4-one] | 93% | 0.041 µM |
| Cc1cc(=O)n2nc(N3CCc4ncc(-c5ccsc5)cc4C3)c(C)cc2n1 [Compound 1-300, 2,8-dimethyl-7-(3-(thiophen-3-yl)-7,8-dihydro-1,6-naphthyridin-6(5H)-yl)-4H-pyrimido[1,2-b]pyridazin-4-one] | 87% | 0.122 µM |
| Cc1cc(=O)n2nc(N3CCc4ncc(-c5ccco5)cc4C3)c(C)cc2n1 [Compound 1-301, 7-(3-(furan-2-yl)-7,8-dihydro-1,6-naphthyridin-6(5H)-yl)-2,8-dimethyl-4H-pyrimido[1,2-b]pyridazin-4-one] | 91% | 0.111 µM |
| Cc1cc(=O)n2nc(N3CCc4ncc(-c5ccc(C)o5)cc4C3)c(C)cc2n1 [Compound 1-302, 2,8-dimethyl-7-(3-(5-methylfuran-2-yl)-7,8-dihydro-1,6-naphthyridin-6(5H)-yl)-4H-pyrimido[1,2-b] pyridazin-4-one] | 85% | 0.188 µM |
| COc1ccsc1-c1cnc2c(c1)CN(c1nn3c(=O)cc(C)nc3c(C)c1C)CC2 [Compound 1-303, 7-(3-(3-methoxythiophen-2-yl)-7,8-dihydro-1,6-naphthyridin-6(5H)-yl)-2,8,9-trimethyl-4H-pyrimido[1,2-b]pyridazin-4-one] | 96% | 0.192 µM |
| Cc1cc(=O)n2nc(N3CCc4ncc(-c5ccsc5)cc4C3)c(C)c(C)c2n1 [Compound 1-304, 2,8,9-trimethyl-7-(3-(thiophen-3-yl)-7,8-dihydro-1,6-naphthyridin-6(5H)-yl)-4H-pyrimido[1,2-b]pyridazin-4-one] | 89% | 0.169 µM |
| Cc1cc(=O)n2nc(N3CCc4ncc(-c5ccc(C)o5)cc4C3)c(C)c(C)c2n1 [Compound 1-305, 2,8,9-trimethyl-7-(3-(5-methylfuran-2-yl)-7,8-dihydro-1,6-naphthyridin-6(5H)-yl)-4H-pyrimido[1,2-b] pyridazin-4-one] | 88% | 0.315 µM |
| Cc1c(N2CCc3ncc(-c4cccc(F)c4)cc3C2)nn2c(=O)cc(C(F)F)nc2c1C [Compound 1-306, 2-(difluoromethyl)-7-(3-(3-fluorophenyl)-7,8-dihydro-1,6-naphthyridin-6(5H)-yl)-8,9-dimethyl-4H-pyrimido[1,2-b]pyridazin-4-one] | 89% | 0.451 µM |
| Cc1cnccc1-c1cnc2c(c1)CN(c1nn3c(=O)cc(C(F)F)nc3c(C)c1C)CC2 [Compound 1-307, 2-(difluoromethyl)-8,9-dimethyl-7-(3-(3-methylpyridin-4-yl)-7,8-dihydro-1,6-naphthyridin-6(5H)-yl)-4H-pyrimido[1,2-b]pyridazin-4-one] | 88% | 0.069 µM |
| Cc1c(N2CCc3ncc(-c4cnn(CCN(C)C)c4)cc3C2)nn2c(=O)cc(C(F)F)nc2c1C [Compound 1-308, 2-(difluoromethyl)-7-(3-(1-(2-(dimethylamino)ethyl)-1H-pyrazol-4-yl)-7,8-dihydro-1,6-naphthyridin-6(5H)-yl)-8,9-dimethyl-4H-pyrimido[1,2-b]pyridazin-4-one] | 78% | 0.313 µM |
| Cc1c(N2CCc3ncc(-c4cnn(C5COC5)c4)cc3C2)nn2c(=O)cc(C(F)F)nc2c1C [Compound 1-309, 2-(difluoromethyl)-8,9-dimethyl-7-(3-(1-(oxetan-3-yl)-1H-pyrazol-4-yl)-7,8-dihydro-1,6-naphthyridin-6(5H)-yl)-4H-pyrimido[1,2-b]pyridazin-4-one] | 88% | 0.203 µM |
| Cc1nn(C)c(C)c1-c1cnc2c(c1)CN(c1nn3c(=O)cc(C(F)F)nc3c(C)c1C)CC2 [Compound 1-310, 2-(difluoromethyl)-8,9-dimethyl-7-(3-(1,3,5-trimethyl-1H-pyrazol-4-yl)-7,8-dihydro-1,6-naphthyridin-6(5H)-yl)-4H-pyrimido[1,2-b]pyridazin-4-one] | 86% | 0.136 µM |
